Among the test systems are SF-539; TK-10; SK-MEL-28; Hs-578T; MDA-MB-435; IGROV-1; BT-549; SNB-75; KM12; LOX IMVI; NCI-H23; HOP-62; RPMI-8226; HL-60; MCF7; SK-MEL-5; SK-MEL-2; K562; RXF 393; HOP-92.
Holding throughout (assay): NCI anticancer screen, dose series, 48 h

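1) Cells in 96-well plates. 2) Compound, 48 h, 5 concentrations. 3) Linear interpolation between surrounding doses. 4) Unreached endpoint = highest concentration. The concentration for 50% growth inhibition is given as GI50.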 Activity calls are given as the source filed them. Cut-off read from the data, not from the text of the source: active = GI50 up to about 1.1 µM and inactive = higher.

Take `CC(C)(CN1CCCCC1)C(/C=C/c1ccc(Cl)cc1)=N\NC(=O)N/N=C(/C=C/c1ccc(Cl)cc1)C(C)(C)CN1CCCCC1`: the GI50 in the assay with SF-539 was 3.44 µM (inactive); in the assay with TK-10, 10.5 µM (inactive); in the assay with SK-MEL-28 it was 9.77 µM (inactive); in the assay with Hs-578T, 5.9 µM (inactive); in the assay on MDA-MB-435, 3.55 µM (inactive); in the assay with IGROV-1, 2.98 µM (inactive). Also, the GI50 is 3.59 µM (inactive) with BT-549; 1.85 µM (inactive) in the assay on SNB-75; 3.24 µM (inactive) in the assay with KM12; 2.3 µM (inactive) in the assay with LOX IMVI; 2.92 µM (inactive) with NCI-H23; 4.42 µM (inactive) with HOP-62. Further, the GI50 is 5.98 µM (inactive) in the assay with RPMI-8226; 2.33 µM (inactive) in the assay with HL-60; 4.02 µM (inactive) in the assay with MCF7; 5.14 µM (inactive) with SK-MEL-5; 8.69 µM (inactive) in the assay on SK-MEL-2; 3.39 µM (inactive) with K562. For the same molecule, the GI50 with RXF 393 is 2.64 µM (inactive); with HOP-92, 2.38 µM (inactive).
Take `Nc1ccc(Sc2c3ccccc3nc3ccccc23)cc1`: the GI50 in the assay with SF-539 is 15.6 µM (inactive); in the assay with TK-10 it was 13.4 µM (inactive); with SK-MEL-28 it was 15.2 µM (inactive); in the assay with Hs-578T, 25.6 µM (inactive); in the assay on MDA-MB-435, 17.2 µM (inactive); in the assay on IGROV-1 it was 17.7 µM (inactive). The GI50 in the assay with BT-549 was 14.3 µM (inactive); with SNB-75, 17.1 µM (inactive); in the assay with KM12 it was 18.6 µM (inactive); in the assay with LOX IMVI, 5.62 µM (inactive); in the assay on NCI-H23, 17.7 µM (inactive); in the assay on HOP-62, 29.7 µM (inactive). Further, the GI50 is 2.82 µM (inactive) with RPMI-8226; 2.96 µM (inactive) in the assay on HL-60; 12.4 µM (inactive) in the assay with MCF7; 16.6 µM (inactive) in the assay on SK-MEL-5; 16.9 µM (inactive) in the assay on SK-MEL-2; 2.65 µM (inactive) in the assay with K562. Besides, the GI50 in the assay on RXF 393 was 18.7 µM (inactive); with HOP-92, 10.1 µM (inactive).
With `C[Si](C)(C)C#CCO[Si](C)(C)C`, the GI50 in the assay with SF-539 was 21.9 µM (inactive); with TK-10, > 100 µM (inactive); in the assay with SK-MEL-28 it was > 75.3 µM (inactive); in the assay with Hs-578T, > 100 µM (inactive); with MDA-MB-435 it was > 61.4 µM (inactive); in the assay with IGROV-1, 16.1 µM (inactive). Moreover, the GI50 in the assay with BT-549 was 39.1 µM (inactive); in the assay with SNB-75, 47.2 µM (inactive); with KM12, > 50.4 µM (inactive); in the assay on LOX IMVI, 7.03 µM (inactive); in the assay with NCI-H23 it was 68.7 µM (inactive); with HOP-62, > 100 µM (inactive). The GI50 with RPMI-8226 was 21 µM (inactive); in the assay with HL-60, 31.5 µM (inactive); in the assay with MCF7, > 74.8 µM (inactive); in the assay with SK-MEL-5, > 100 µM (inactive); in the assay with SK-MEL-2, > 54.2 µM (inactive); with K562, 30.9 µM (inactive). Moreover, the GI50 in the assay on RXF 393 was > 100 µM (inactive); with HOP-92 it was 18.2 µM (inactive).
Take `O=C(C=P(c1ccccc1)(c1ccccc1)c1ccccc1)c1ccc(-c2cccs2)cc1`: the GI50 was 3.97 µM (inactive) in the assay with SF-539; 3.08 µM (inactive) in the assay with TK-10; 3.41 µM (inactive) with SK-MEL-28; 18.5 µM (inactive) in the assay with Hs-578T; 3.08 µM (inactive) in the assay with MDA-MB-435; 7.73 µM (inactive) in the assay on IGROV-1. Moreover, the GI50 in the assay with BT-549 was 20.5 µM (inactive); in the assay with SNB-75, 3.56 µM (inactive); in the assay with KM12, 4.13 µM (inactive); with LOX IMVI, 4.57 µM (inactive); in the assay on NCI-H23, 8.91 µM (inactive); in the assay with HOP-62, 6.64 µM (inactive). For the same molecule, the GI50 was 2.25 µM (inactive) in the assay with RPMI-8226; 2.11 µM (inactive) in the assay on HL-60; 3.41 µM (inactive) with MCF7; 2.17 µM (inactive) with SK-MEL-5; 1.39 µM (inactive) in the assay with SK-MEL-2; 3.59 µM (inactive) in the assay on K562. Also, the GI50 in the assay with RXF 393 was 3.11 µM (inactive); in the assay on HOP-92, 3.48 µM (inactive).
As for `Nc1nc(Cl)cc(NCC2(O)CC2)n1`, the GI50 in the assay with SF-539, in the assay on TK-10, with SK-MEL-28, in the assay on Hs-578T, with MDA-MB-435 and in the assay on IGROV-1 was > 100 µM (inactive) in each case. For the same molecule, the GI50 with BT-549, with SNB-75, in the assay on KM12, in the assay on LOX IMVI, in the assay with NCI-H23 and in the assay on HOP-62 was > 100 µM (inactive) in each case. Moreover, the GI50 in the assay with RPMI-8226, with HL-60, with MCF7, with SK-MEL-5, in the assay on SK-MEL-2 and with K562 was > 100 µM (inactive) throughout. Also, the GI50 in the assay with RXF 393 and with HOP-92 was > 100 µM (inactive) in each case.
Take `O=C1C=CC2(C=C1)O[C@H](CCc1ccccc1)[C@@H](CCc1ccccc1)O2`: the GI50 in the assay on SF-539 was > 100 µM (inactive); in the assay on TK-10, > 100 µM (inactive); with SK-MEL-28 it was > 100 µM (inactive); with Hs-578T, > 100 µM (inactive); with MDA-MB-435, 27.9 µM (inactive); with IGROV-1 it was 98.9 µM (inactive). The GI50 in the assay on BT-549 is > 100 µM (inactive); with SNB-75, > 100 µM (inactive); with KM12, > 100 µM (inactive); with LOX IMVI, 12.3 µM (inactive); with NCI-H23, > 100 µM (inactive); with HOP-62, 61.2 µM (inactive). Besides, the GI50 with RPMI-8226 was 82 µM (inactive); with HL-60, > 100 µM (inactive); in the assay with MCF7 it was > 100 µM (inactive); with SK-MEL-5, > 100 µM (inactive); in the assay with SK-MEL-2, > 100 µM (inactive); in the assay with K562, > 100 µM (inactive). The GI50 was 24.3 µM (inactive) with RXF 393 and 21.9 µM (inactive) in the assay with HOP-92.
`NCCCCNC1(c2cc3ccccc3s2)CCCCC1`: the GI50 in the assay on SF-539 was 1.95 µM (inactive); in the assay on TK-10, 3.87 µM (inactive); in the assay on SK-MEL-28, 1.83 µM (inactive); in the assay with Hs-578T it was 4.51 µM (inactive); in the assay with MDA-MB-435, 1.82 µM (inactive); in the assay with IGROV-1 it was 3.08 µM (inactive). Besides, the GI50 in the assay on BT-549 was 11.8 µM (inactive); in the assay with SNB-75, 3.27 µM (inactive); with KM12, 3.2 µM (inactive); in the assay on LOX IMVI, 1.71 µM (inactive); in the assay on NCI-H23, 14.2 µM (inactive); in the assay on HOP-62, 6.03 µM (inactive). The GI50 in the assay with RPMI-8226 was 1.84 µM (inactive); with HL-60 it was 3.09 µM (inactive); in the assay with MCF7 it was 2.88 µM (inactive); in the assay on SK-MEL-5, 1.74 µM (inactive); in the assay with SK-MEL-2, 1.88 µM (inactive); in the assay on K562, 1.59 µM (inactive). Also, the GI50 with RXF 393 is 3.07 µM (inactive); with HOP-92, 5.32 µM (inactive).
Regarding `CCOc1cc2oc(C)cc(=O)c2c(OC)c1/C=N/c1ccc(Cn2c(C)nc3ccccc32)cc1`, the GI50 in the assay with SF-539, in the assay with TK-10, in the assay on SK-MEL-28, in the assay with Hs-578T, in the assay on MDA-MB-435 and in the assay with IGROV-1 was > 100 µM (inactive) in each case. Also, the GI50 in the assay with BT-549, in the assay with SNB-75, in the assay with KM12, in the assay with LOX IMVI, in the assay on NCI-H23 and in the assay on HOP-62 was > 100 µM (inactive) throughout. Besides, the GI50 in the assay on RPMI-8226, in the assay with HL-60, in the assay with MCF7, in the assay on SK-MEL-5, in the assay on SK-MEL-2 and with K562 was > 100 µM (inactive) in each case. Besides, the GI50 with RXF 393 and with HOP-92 was > 100 µM (inactive) throughout.
`CCc1nc(N)nc(N)c1-c1ccc(N2CCNCC2)cc1`: the GI50 was 77.3 µM (inactive) in the assay with SF-539; > 100 µM (inactive) with TK-10; > 78.5 µM (inactive) in the assay with SK-MEL-28; > 100 µM (inactive) in the assay with Hs-578T; 59.8 µM (inactive) in the assay on MDA-MB-435; 64.7 µM (inactive) in the assay on IGROV-1. Further, the GI50 in the assay with BT-549 was 64 µM (inactive); in the assay with SNB-75 it was > 100 µM (inactive); in the assay on KM12, > 95.9 µM (inactive); in the assay on LOX IMVI, 39.7 µM (inactive); in the assay on NCI-H23, 46 µM (inactive); in the assay with HOP-62 it was 55.8 µM (inactive). The GI50 in the assay on RPMI-8226 was > 56.1 µM (inactive); with HL-60, 34.4 µM (inactive); with MCF7 it was 47.3 µM (inactive); in the assay with SK-MEL-5, 19.8 µM (inactive); in the assay on SK-MEL-2, > 100 µM (inactive); in the assay on K562 it was 24.2 µM (inactive). The results for the GI50 in the assay on RXF 393 and in the assay with HOP-92 were 64.9 µM (inactive) and > 100 µM (inactive), respectively.
Regarding `COc1cc2c(cc1OCCCCCOc1cc3c(cc1OC)C(=O)N1CCC[C@H]1C(=O)N3)N=C[C@@H]1CCCN1C2=O`, the GI50 in the assay with SF-539 was 0.0224 µM (active); in the assay on TK-10, 0.111 µM (active); with SK-MEL-28, 0.174 µM (active); in the assay with Hs-578T, 0.258 µM (active); in the assay on MDA-MB-435, 0.124 µM (active); in the assay with IGROV-1, 0.132 µM (active). The GI50 with BT-549 is 0.075 µM (active); in the assay with SNB-75, < 0.01 µM (active); with KM12 it was 0.18 µM (active); with LOX IMVI, 0.0274 µM (active); with NCI-H23, 0.21 µM (active); in the assay on HOP-62, 0.14 µM (active). The GI50 in the assay with RPMI-8226 is 0.0301 µM (active); in the assay on HL-60, 0.0817 µM (active); in the assay on MCF7, 0.0229 µM (active); with SK-MEL-5, 0.1 µM (active); in the assay on SK-MEL-2, 0.0809 µM (active); in the assay with K562, 0.0453 µM (active). Moreover, the GI50 in the assay with RXF 393 is 0.175 µM (active); with HOP-92, 0.0299 µM (active).
